Data: US20100003191A1, “AURONE DERIVATIVE-CONTAINING COMPOSITION FOR DIAGNOSIS” (NAGASAKI UNIVERSITY, priority 2006, published 2010)

Assay: In vivo radioactivity biodistribution experiment in normal mice (Example 1, Table 13)
Parameters: species or system ddY mice
Method: ^125I-labeled compounds were diluted with 10% ethanol-containing physiological saline. […] After their blood was collected, organs were removed, and the weights and radioactivities thereof were measured.
When any of the aurone derivatives was used, sufficient radioactivity to perform imaging of intracerebral amyloid migrated to the brain from the early stage of injection (1.7-4.6% ID/g). […] It was also shown that, in any of the aurone derivatives, in vivo radioactivity behavior is discharged mainly from the liver to the bile duct and the intestinal tract.

Biodistribution of radioactivity, Blood (2 min after injection) | Biodistribution of radioactivity, Blood (10 min after injection) | Biodistribution of radioactivity, Blood (30 min after injection) | Biodistribution of radioactivity, Blood (60 min after injection) | Biodistribution of radioactivity, Brain (2 min after injection) | Biodistribution of radioactivity, Brain (10 min after injection) | Biodistribution of radioactivity, Brain (30 min after injection) | Biodistribution of radioactivity, Brain (60 min after injection) | Biodistribution of radioactivity, Heart (2 min after injection) | Biodistribution of radioactivity, Heart (10 min after injection) | Biodistribution of radioactivity, Heart (30 min after injection) | Biodistribution of radioactivity, Heart (60 min after injection) | Biodistribution of radioactivity, Intestine (2 min after injection) | Biodistribution of radioactivity, Intestine (10 min after injection) | Biodistribution of radioactivity, Intestine (30 min after injection) | Biodistribution of radioactivity, Intestine (60 min after injection) | Biodistribution of radioactivity, Kidney (2 min after injection) | Biodistribution of radioactivity, Kidney (10 min after injection) | Biodistribution of radioactivity, Kidney (30 min after injection) | Biodistribution of radioactivity, Kidney (60 min after injection) | other results | SMILES
4.16 (0.98) % injected dose per gram | 2.72 (1.01) % injected dose per gram | 2.84 (1.48) % injected dose per gram | 2.41 (0.70) % injected dose per gram | 3.17 (0.45) % injected dose per gram | 1.22 (0.09) % injected dose per gram | 0.32 (0.02) % injected dose per gram | 0.24 (0.05) % injected dose per gram | 5.07 (0.47) % injected dose per gram | 2.17 (0.34) % injected dose per gram | 0.98 (0.21) % injected dose per gram | 0.84 (0.37) % injected dose per gram | 3.06 (1.11) % injected dose per gram | 6.59 (3.43) % injected dose per gram | 10.34 (4.91) % injected dose per gram | 14.04 (2.87) % injected dose per gram | 9.91 (2.00) % injected dose per gram | 11.44 (2.76) % injected dose per gram | 6.00 (2.14) % injected dose per gram | 3.52 (0.77) % injected dose per gram | Biodistribution of radioactivity, Liver (2 min after injection): 11.26 (2.81) % injected dose per gram; Biodistribution of radioactivity, Liver (10 min after injection): 9.70 (2.78) % injected dose per gram; Biodistribution of radioactivity, Liver (30 min after injection): 6.11 (2.16) % injected dose per gram; Biodistribution of radioactivity, Liver (60 min after injection): 4.91 (0.72) % injected dose per gram; Biodistribution of radioactivity, Lung (2 min after injection): 6.86 (0.65) % injected dose per gram; Biodistribution of radioactivity, Lung (10 min after injection): 4.44 (0.39) % injected dose per gram; Biodistribution of radioactivity, Lung (30 min after injection): 2.41 (0.66) % injected dose per gram; Biodistribution of radioactivity, Lung (60 min after injection): 2.94 (0.62) % injected dose per gram; Biodistribution of radioactivity, Pancreas (2 min after injection): 4.83 (0.60) % injected dose per gram; Biodistribution of radioactivity, Pancreas (10 min after injection): 1.81 (0.15) % injected dose per gram; Biodistribution of radioactivity, Pancreas (30 min after injection): 0.83 (0.10) % injected dose per gram; Biodistribution of radioactivity, Pancreas (60 min after injection): 0.77 (0.28) % injected dose per gram; Biodistribution of radioactivity, Spleen (2 min after injection): 2.37 (0.41) % injected dose per gram; Biodistribution of radioactivity, Spleen (10 min after injection): 1.28 (0.19) % injected dose per gram; Biodistribution of radioactivity, Spleen (30 min after injection): 0.86 (0.14) % injected dose per gram; Biodistribution of radioactivity, Spleen (60 min after injection): 0.75 (0.17) % injected dose per gram; Biodistribution of radioactivity, Stomach (2 min after injection): 1.30 (0.43) % injected dose per organ; Biodistribution of radioactivity, Stomach (10 min after injection): 2.53 (0.97) % injected dose per organ; Biodistribution of radioactivity, Stomach (30 min after injection): 2.82 (1.88) % injected dose per organ; Biodistribution of radioactivity, Stomach (60 min after injection): 2.26 (0.88) % injected dose per organ | CNc1ccc(/C=C2\Oc3ccc([125I])cc3C2=O)cc1 [[^125I]12]
3.16 (0.82) % injected dose per gram | 1.51 (0.23) % injected dose per gram | 0.95 (0.19) % injected dose per gram | 0.70 (0.60) % injected dose per gram | 1.69 (0.43) % injected dose per gram | 0.54 (0.12) % injected dose per gram | 0.11 (0.05) % injected dose per gram | 0.03 (0.02) % injected dose per gram | 3.84 (1.04) % injected dose per gram | 1.06 (0.10) % injected dose per gram | 0.37 (0.09) % injected dose per gram | 0.25 (0.12) % injected dose per gram | 1.59 (0.51) % injected dose per gram | 4.70 (1.46) % injected dose per gram | 11.67 (3.56) % injected dose per gram | 9.02 (3.14) % injected dose per gram | 7.26 (2.18) % injected dose per gram | 7.00 (1.49) % injected dose per gram | 4.93 (1.52) % injected dose per gram | 2.43 (1.17) % injected dose per gram | Biodistribution of radioactivity, Liver (2 min after injection): 6.87 (2.18) % injected dose per gram; Biodistribution of radioactivity, Liver (10 min after injection): 5.16 (0.73) % injected dose per gram; Biodistribution of radioactivity, Liver (30 min after injection): 2.76 (0.40) % injected dose per gram; Biodistribution of radioactivity, Liver (60 min after injection): 1.86 (0.83) % injected dose per gram; Biodistribution of radioactivity, Lung (2 min after injection): 6.71 (1.39) % injected dose per gram; Biodistribution of radioactivity, Lung (10 min after injection): 1.76 (0.29) % injected dose per gram; Biodistribution of radioactivity, Lung (30 min after injection): 0.97 (0.20) % injected dose per gram; Biodistribution of radioactivity, Lung (60 min after injection): 0.75 (0.33) % injected dose per gram; Biodistribution of radioactivity, Pancreas (2 min after injection): 2.83 (0.75) % injected dose per gram; Biodistribution of radioactivity, Pancreas (10 min after injection): 0.77 (0.17) % injected dose per gram; Biodistribution of radioactivity, Pancreas (30 min after injection): 0.29 (0.14) % injected dose per gram; Biodistribution of radioactivity, Pancreas (60 min after injection): 0.16 (0.05) % injected dose per gram; Biodistribution of radioactivity, Spleen (2 min after injection): 1.45 (0.56) % injected dose per gram; Biodistribution of radioactivity, Spleen (10 min after injection): 0.74 (0.10) % injected dose per gram; Biodistribution of radioactivity, Spleen (30 min after injection): 0.48 (0.10) % injected dose per gram; Biodistribution of radioactivity, Spleen (60 min after injection): 0.43 (0.14) % injected dose per gram; Biodistribution of radioactivity, Stomach (2 min after injection): 0.68 (0.33) % injected dose per organ; Biodistribution of radioactivity, Stomach (10 min after injection): 1.06 (0.66) % injected dose per organ; Biodistribution of radioactivity, Stomach (30 min after injection): 0.48 (0.09) % injected dose per organ; Biodistribution of radioactivity, Stomach (60 min after injection): 0.96 (0.46) % injected dose per organ | COc1ccc(/C=C2\Oc3ccc([125I])cc3C2=O)cc1 [[^125I]17]
